Values quoted from earlier work in article PMC11990879, “Anticandidal Activity of Lipopeptides Containing an LL-37-Derived Peptide Fragment KR12” (Molecules, 2025).
Marks after values point to notes of the source that are not given here. Where a SMILES comes first, the peptide text is derived from it. The star is where a group is joined. Butanoyl(4-Ph) = O=C(CCCc1ccccc1)*; Hydrocinnamoyl = O=C(CCc1ccccc1)*; Octanoyl = CCCCCCCC(=O)*; X3 = O=C(/C=C/c1ccccc1)*; Hexanoyl = CCCCCC(=O)*; X4 = CCCCC(CC)C(=O)*; Butyryl = CCCC(=O)*

Test system: human red blood cells
Conditions: cited from earlier work
Description: Table 2 Minimum inhibitory concentrations (MIC) and minimum fungicidal concentrations (MFC) determined for peptides and reference antifungals [g/L]. The highest antimicrobial activity is marked in green, medium values in yellow, while the weakest antifungal activity is marked in red. Minimum hemolytic concentration (MHC5%—causing hemolysis of 5% of human red blood cells) determined in previous stu | column: MHC5%

| Compound | MHC5% (minimum hemolytic concentration causing hemolysis of 5% of human red blood cells) |
| --- | --- |
| CC[C@H](C)[C@H](NC(=O)[C@H](CCCNC(=N)N)NC(=O)[C@H](CCC(N)=O)NC(=O)[C@@H](NC(=O)[C@@H](NC(=O)[C@H](CCCNC(=N)N)NC(=O)[C@H](CCCCN)NC(=O)/C=C/c1ccccc1)[C@@H](C)CC)C(C)C)C(=O)N[C@@H](CCCCN)C(=O)N[C@@H](CC(=O)O)C(=O)N[C@@H](Cc1ccccc1)C(=O)N[C@@H](CC(C)C)C(=O)N[C@@H](CCCNC(=N)N)C(N)=O [IX, trans-cinnamic acid-KR12-NH2] (X3-KRIVQRIKDFLR-NH2) | 128 g/L |
| CCCCCCCC(=O)NCCCC[C@H](N)C(=O)N[C@@H](CCCNC(=N)N)C(=O)N[C@H](C(=O)N[C@H](C(=O)N[C@@H](CCC(N)=O)C(=O)N[C@@H](CCCNC(=N)N)C(=O)N[C@H](C(=O)N[C@@H](CCCCN)C(=O)N[C@@H](CC(=O)O)C(=O)N[C@@H](Cc1ccccc1)C(=O)N[C@@H](CC(C)C)C(=O)N[C@@H](CCCNC(=N)N)C(N)=O)[C@@H](C)CC)C(C)C)[C@@H](C)CC [XI, C8^ε-KR12-NH2] (H-K(Octanoyl)RIVQRIKDFLR-NH2) | >256 * g/L |
| CCCCCCCC(=O)N[C@@H](CCCCN)C(=O)N[C@@H](CCCCN)C(=O)N[C@@H](CCCNC(=N)N)C(=O)N[C@H](C(=O)N[C@H](C(=O)N[C@@H](CCC(N)=O)C(=O)N[C@@H](CCCNC(=N)N)C(=O)N[C@H](C(=O)N[C@@H](CCCCN)C(=O)N[C@@H](CC(=O)O)C(=O)N[C@@H](Cc1ccccc1)C(=O)N[C@@H](CC(C)C)C(=O)N[C@@H](CCCNC(=N)N)C(N)=O)[C@@H](C)CC)C(C)C)[C@@H](C)CC [XII, C8^α-Lys-KR12-NH2] (Octanoyl-KKRIVQRIKDFLR-NH2) | 256 g/L |
| CCCCC(CC)C(=O)N[C@@H](CCCCN)C(=O)N[C@@H](CCCNC(=N)N)C(=O)N[C@H](C(=O)N[C@H](C(=O)N[C@@H](CCC(N)=O)C(=O)N[C@@H](CCCNC(=N)N)C(=O)N[C@H](C(=O)N[C@@H](CCCCN)C(=O)N[C@@H](CC(=O)O)C(=O)N[C@@H](Cc1ccccc1)C(=O)N[C@@H](CC(C)C)C(=O)N[C@@H](CCCNC(=N)N)C(N)=O)[C@@H](C)CC)C(C)C)[C@@H](C)CC (stereo partly shown) [XX, 2-Ethylhexanoic acid-KR12-NH2] (X4-KRIVQRIKDFLR-NH2) | 256 g/L |
| CC[C@H](C)[C@H](NC(=O)[C@H](CCCNC(=N)N)NC(=O)[C@H](CCC(N)=O)NC(=O)[C@@H](NC(=O)[C@@H](NC(=O)[C@H](CCCNC(=N)N)NC(=O)[C@H](CCCCN)NC(=O)CCCc1ccccc1)[C@@H](C)CC)C(C)C)C(=O)N[C@@H](CCCCN)C(=O)N[C@@H](CC(=O)O)C(=O)N[C@@H](Cc1ccccc1)C(=O)N[C@@H](CC(C)C)C(=O)N[C@@H](CCCNC(=N)N)C(N)=O [XXIII, 4-Phenylbutanoic acid-KR12-NH2] ({Butanoyl(4-Ph)}-KRIVQRIKDFLR-NH2) | 128 g/L |

Same assay, conditions: human red blood cells; determined in previous studies; ref [13],[14]; cited from earlier work

| Compound | MHC5% (minimum hemolytic concentration causing hemolysis of 5% of human red blood cells) |
| --- | --- |
| CCCC(=O)N[C@@H](CCCCN)C(=O)N[C@@H](CCCNC(=N)N)C(=O)N[C@H](C(=O)N[C@H](C(=O)N[C@@H](CCC(N)=O)C(=O)N[C@@H](CCCNC(=N)N)C(=O)N[C@H](C(=O)N[C@@H](CCCCN)C(=O)N[C@@H](CC(=O)O)C(=O)N[C@@H](Cc1ccccc1)C(=O)N[C@@H](CC(C)C)C(=O)N[C@@H](CCCNC(=N)N)C(N)=O)[C@@H](C)CC)C(C)C)[C@@H](C)CC [II, C4-KR12-NH2] (Butyryl-KRIVQRIKDFLR-NH2) | >256 * g/L |
| CCCCCC(=O)N[C@@H](CCCCN)C(=O)N[C@@H](CCCNC(=N)N)C(=O)N[C@H](C(=O)N[C@H](C(=O)N[C@@H](CCC(N)=O)C(=O)N[C@@H](CCCNC(=N)N)C(=O)N[C@H](C(=O)N[C@@H](CCCCN)C(=O)N[C@@H](CC(=O)O)C(=O)N[C@@H](Cc1ccccc1)C(=O)N[C@@H](CC(C)C)C(=O)N[C@@H](CCCNC(=N)N)C(N)=O)[C@@H](C)CC)C(C)C)[C@@H](C)CC [III, C6-KR12-NH2] (Hexanoyl-KRIVQRIKDFLR-NH2) | 256 g/L |
| CCCCCCCC(=O)NCCCC[C@H](N)C(=O)N[C@@H](CCCCN)C(=O)N[C@@H](CCCNC(=N)N)C(=O)N[C@H](C(=O)N[C@H](C(=O)N[C@@H](CCC(N)=O)C(=O)N[C@@H](CCCNC(=N)N)C(=O)N[C@H](C(=O)N[C@@H](CCCCN)C(=O)N[C@@H](CC(=O)O)C(=O)N[C@@H](Cc1ccccc1)C(=O)N[C@@H](CC(C)C)C(=O)N[C@@H](CCCNC(=N)N)C(N)=O)[C@@H](C)CC)C(C)C)[C@@H](C)CC [XIII, C8^ε-Lys-KR12-NH2] (H-K(Octanoyl)KRIVQRIKDFLR-NH2) | 256 g/L |
| CCCCCCCC(=O)NCCCC[C@H](NC(=O)[C@H](CCCNC(=N)N)NC(=O)[C@H](CC(C)C)NC(=O)[C@H](Cc1ccccc1)NC(=O)[C@H](CC(=O)O)NC(=O)[C@H](CCCCN)NC(=O)[C@@H](NC(=O)[C@H](CCCNC(=N)N)NC(=O)[C@H](CCC(N)=O)NC(=O)[C@@H](NC(=O)[C@@H](NC(=O)[C@H](CCCNC(=N)N)NC(=O)[C@@H](N)CCCCN)[C@@H](C)CC)C(C)C)[C@@H](C)CC)C(N)=O [XIV, KR12-Lys^ε(C8)-NH2] (H-KRIVQRIKDFLRK(Octanoyl)-NH2) | >256 * g/L |
| CCCCCCCC(=O)NCCCC[C@H](NC(=O)[C@H](CC(C)C)NC(=O)[C@H](Cc1ccccc1)NC(=O)[C@H](CC(=O)O)NC(=O)[C@H](CCCCN)NC(=O)[C@@H](NC(=O)[C@H](CCCNC(=N)N)NC(=O)[C@H](CCC(N)=O)NC(=O)[C@@H](NC(=O)[C@@H](NC(=O)[C@H](CCCNC(=N)N)NC(=O)[C@@H](N)CCCCN)[C@@H](C)CC)C(C)C)[C@@H](C)CC)C(N)=O [XV, [Lys^ε(C8)]^12KR12-NH2] (H-KRIVQRIKDFLK(Octanoyl)-NH2) | >256 * g/L |
| CCCCCCCC(=O)NCCCC[C@H](NC(=O)[C@H](CCCNC(=N)N)NC(=O)[C@@H](NC(=O)[C@@H](NC(=O)[C@H](CCC(N)=O)NC(=O)[C@H](CCCNC(=N)N)NC(=O)[C@@H](NC(=O)[C@H](CCCCN)NC(=O)[C@H](CC(=O)O)NC(=O)[C@H](Cc1ccccc1)NC(=O)[C@H](CC(C)C)NC(=O)[C@@H](N)CCCNC(=N)N)[C@@H](C)CC)C(C)C)[C@@H](C)CC)C(N)=O [XVII, Retro-KR12-C8^ε-NH2] (H-RLFDKIRQVIRK(Octanoyl)-NH2) | 256 g/L |
| CCCCCCCC(=O)N[C@@H](CCCNC(=N)N)C(=O)N[C@@H](CC(C)C)C(=O)N[C@@H](Cc1ccccc1)C(=O)N[C@@H](CC(=O)O)C(=O)N[C@@H](CCCCN)C(=O)N[C@H](C(=O)N[C@@H](CCCNC(=N)N)C(=O)N[C@@H](CCC(N)=O)C(=O)N[C@H](C(=O)N[C@H](C(=O)N[C@@H](CCCNC(=N)N)C(=O)N[C@@H](CCCCN)C(N)=O)[C@@H](C)CC)C(C)C)[C@@H](C)CC [XVIII, C8^α-retro-KR12-NH2] (Octanoyl-RLFDKIRQVIRK-NH2) | >256 * g/L |
| CC[C@H](C)[C@H](NC(=O)[C@H](CCCNC(=N)N)NC(=O)[C@H](CCC(N)=O)NC(=O)[C@@H](NC(=O)[C@@H](NC(=O)[C@H](CCCNC(=N)N)NC(=O)[C@H](CCCCN)NC(=O)CCc1ccccc1)[C@@H](C)CC)C(C)C)C(=O)N[C@@H](CCCCN)C(=O)N[C@@H](CC(=O)O)C(=O)N[C@@H](Cc1ccccc1)C(=O)N[C@@H](CC(C)C)C(=O)N[C@@H](CCCNC(=N)N)C(N)=O [XXII, 3-Phenylpropionic acid-KR12-NH2] (Hydrocinnamoyl-KRIVQRIKDFLR-NH2) | 256 g/L |
